Type in all cases: physicochemical
Data set [1] can be described thus: pKa of unformulated amine lipid by TNS fluorescence. The note with it: sodium phosphate buffer; Table 2; unformulated amine lipid, TNS; read-out: Lipid pKa. The method in brief:
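Unformulated amine lipid was diluted from ethanol stock to approx. 100 μM in 0.1 M sodium phosphate buffers spanning pH 4.5–9.0 with TNS. Fluorescence read at ex 321/em 448 nm; normalized data fitted sigmoidally to give pKa.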

A short description of data set [2]: LNP encapsulation efficiency of RNA (Ribogreen fluorescence assay). The note with it: Table 3, Experiments 1-13; LNP 50% ionizable lipid, 38% cholesterol, 9% DSPC, 3% PEG2K-DMG; sgRNA:mRNA 1:2. How it is done: (§1) LNP compositions are analyzed for average particle size, polydispersity index (pdi), total RNA content, encapsulation efficiency of RNA, and zeta potential. LNP compositions may be further characterized by lipid analysis, AF4-MALS, NTA, and/or cryo-EM.
Encapsulation efficiency is calculated as (Total RNA−Free RNA)/Total RNA. A fluorescence-based assay (Ribogreen®, ThermoFisher Scientific) is used to determine total RNA concentration and free RNA. LNP samples are diluted appropriately with 1×TE buffer containing 0.2% Triton-X 100 to determine total RNA or 1×TE buffer to determine free RNA. Standard curves are prepared by utilizing the starting RNA solution used to make the compositions and diluted in 1×TE buffer+/−0.2% Triton-X 100. Diluted RiboGreen® dye (according to the manufacturer's instructions) is then added to each of the standards and samples and allowed to incubate for approximately 10 minutes at room temperature, in the absence of light. A SpectraMax M5 Microplate Reader (Molecular Devices) is used to read the samples with excitation, auto cutoff and emission wavelengths set to 488 nm, 515 nm, and 525 nm respectively. Total RNA and free RNA are determined from the appropriate standard curves. Alternatively, the total RNA concentration can be determined by a reverse-phase ion-pairing (RP-IP) HPLC method. Triton X-100 is used to disrupt the LNPs, releasing the RNA. The RNA is then separated from the lipid components chromatographically by RP-IP HPLC and quantified against a standard curve using UV absorbance at 260 nm.
(§2) In vivo editing efficiency for materials delivered with formulations including various amine lipid (or ionizable lipid) compounds in Experiments 1 through 14 as described in Tables 3 and 4 was assessed. Editing was measured using G000534 (SEQ ID NO: 5) which targets the rat TTR gene. Lipids described above were assessed for efficacy through in vivo editing experiments. LNPs were formulated at a 1:2 w/w ratio of sgRNA (SEQ ID NO: 5) and Cas9 mRNA (SEQ ID NO: 3). In Experiments 1 through 13, lipid components of the LNP are formulated in a molar ratio of 50% ionizable lipid, 38% cholesterol, 9% DSPC, and 3% PEG2K-DMG. In Experiment 14, lipid components of the LNP are formulated in a molar ratio of 50% ionizable lipid, 38% cholesterol, 9% DSPC, and 3% C13 Ether. The final LNPs used in different in vivo editing experiments were characterized to determine the encapsulation efficiency (% E), polydispersity index (PDI), and average particle size (Z-avg and number mean) according to the analytical methods provided above. The pKa values of each of the following ionizable lipids were also measured to be in the range of about 5.8 to about 7.6.
(§3) In vivo editing efficiency for materials delivered with formulations including various combinations of amine lipid (or ionizable lipid) and PEG lipid compounds was assessed as described in Tables 5 and 6. Editing was measured using G000534 (SEQ ID NO: 5) which targets the rat TTR gene. Lipids described above were assessed for efficacy through in vivo editing experiments. LNPs were formulated at a 1:2 w/w ratio of sgRNA (SEQ ID NO: 5) and Cas9 mRNA (SEQ ID NO:3). Lipid components of the LNP are formulated in a molar ratio of 50% ionizable lipid, 38% cholesterol, 9% DSPC, and 3% of various PEG lipids (e.g., PEG2K-DMG, C13 Ether, C14 Ether). The final LNPs used in different in vivo editing experiments were characterized to determine the encapsulation efficiency (% E), polydispersity index (PDI), and average particle size (Z-avg and number mean) according to the analytical methods provided above. The pKa values of each of the following ionizable lipids were also measured to be in the range of about 5.8 to about 7.6.
In vivo editing efficiency for materials delivered with formulations including various amine lipid (or ionizable lipid) compounds as described in Tables 7 and 8 was assessed. […]

Data set [3] is described as follows: LNP average particle size and polydispersity by dynamic light scattering. The note with it: Table 3, Experiments 1-13; LNP 50% ionizable lipid, 38% cholesterol, 9% DSPC, 3% PEG2K-DMG; sgRNA:mRNA 1:2. As for the experimental part:
Dynamic Light Scattering (“DLS”) is used to characterize the polydispersity index (“pdi” or “PDI”) and size of the LNPs of the present disclosure. DLS measures the scattering of light that results from subjecting a sample to a light source. PDI, as determined from DLS measurements, represents the distribution of particle size (around the mean particle size) in a population, with a perfectly uniform population having a PDI of zero.
as §1
Average particle size and polydispersity are measured by dynamic light scattering (DLS) using a Malvern Zetasizer DLS instrument. LNP samples were diluted with PBS buffer prior to being measured by DLS. Z-average diameter (“Z-avg”) which is an intensity-based measurement of average particle size was reported along with number average diameter (“number mean”) and PDI. A Malvern Zetasizer instrument is also used to measure the zeta potential of the LNP. Samples are diluted 1:17 (50 μL into 800 μL) in 0.1×PBS, pH 7.4 prior to measurement.
as §2, §3
In vivo editing efficiency for materials delivered with formulations including various amine lipid (or ionizable lipid) compounds as described in Tables 7 and 8 was assessed. Editing was measured using G000534 (SEQ ID NO: 5) which targets the rat TTR gene. Lipids described above were assessed for efficacy through in vivo editing experiments. LNPs were formulated at a 1:2 w/w ratio of sgRNA (SEQ ID NO: 5) and Cas9 mRNA (SEQ ID NO: 3). Lipid components of the LNP were formulated in a molar ratio of 50% ionizable lipid, 38% cholesterol, 9% DSPC, and 3% C13 Ether. […]

Values joined by “and” are separate entries in the source; they are usually repeats but may differ in a detail not shown here. Identical values can stand only once.

The pKa is the pH at which an ionisable group is half protonated.

`CCCCC/C=C\C/C=C\CCCCCCCC(=O)OCC(CCCCC(=O)OC(CCCC)CCCC)COC(=O)OCCCN(CC)CC` (stereo not shown) [Compound 14, 2-((((3-(diethylamino)propoxy)carbonyl)oxy)methyl)-7-(nonan-5-yloxy)-7-oxoheptyl (9Z,12Z)-octadeca-9,12-dienoate]: in data set [1], the pKa came to 6.27. Further, the “% E (encapsulation efficiency)” value in data set [2] came to 96%. Moreover, in data set [3], the Number mean is reported as 107 nm, the PDI came to 0.01 and the Z-avg was found to be 114 nm.

Consider `CCCCC/C=C\C/C=C\CCCCCCCC(=O)OCC(CCCCC(=O)OC(CCCCCCCC)CCCCCCCC)COC(=O)OCCCN(CC)CC` (stereo not shown) [Compound 15, 2-((((3-(diethylamino)propoxy)carbonyl)oxy)methyl)-7-(heptadecan-9-yloxy)-7-oxoheptyl (9Z,12Z)-octadeca-9,12-dienoate], for which, in data set [1], the pKa came out at 6.11. Also, the “% E (encapsulation efficiency)” value in data set [2] was 98%. Moreover, in data set [3], the Number mean is 58 nm, the PDI was found to be 0.06 and the Z-avg amounted to 66 nm.

In the case of `CCCCC/C=C\C/C=C\CCCCCCCC(=O)OCC(CCCCCCC(=O)OC(CCCCCCCC)CCCCCCCC)COC(=O)OCCCN(CC)CC` (stereo not shown) [Compound 16, 2-((((3-(diethylamino)propoxy)carbonyl)oxy)methyl)-9-(heptadecan-9-yloxy)-9-oxononyl (9Z,12Z)-octadeca-9,12-dienoate], the pKa in data set [1] came out at 5.98. Moreover, the “% E (encapsulation efficiency)” value in data set [2] turned out to be 99%. In data set [3], the Number mean is 62 nm, the PDI stood at 0.03 and the Z-avg is given as 68 nm.

In the case of `CCCCC/C=C\C/C=C\CCCCCCCC(=O)OCC(CCCCC(=O)OC(CCCCCC)CCCCCC)COC(=O)OCCCN(CC)CC` (stereo not shown) [Compound 17, 2-((((3-(diethylamino)propoxy)carbonyl)oxy)methyl)-7-oxo-7-(tridecan-7-yloxy)heptyl (9Z,12Z)-octadeca-9,12-dienoate], the pKa in data set [1] was 6.13. Besides, the “% E (encapsulation efficiency)” value in data set [2] is on record as 99%. Also, in data set [3], the Number mean is 67 nm, the PDI was found to be 0.03 and the Z-avg came out at 74 nm.

Regarding `CCCCC/C=C\C/C=C\CCCCCCCC(=O)OCC(CCCCCCC(=O)OC(CCCCCC)CCCCCC)COC(=O)OCCCN(CC)CC` (stereo not shown) [Compound 18, 2-((((3-(diethylamino)propoxy)carbonyl)oxy)methyl)-9-oxo-9-(tridecan-7-yloxy)nonyl (9Z,12Z)-octadeca-9,12-dienoate], the pKa in data set [1] came out at 6.08. Further, in data set [2], the “% E (encapsulation efficiency)” value is reported as 99%. In addition, in data set [3], the Number mean turned out to be 69 nm, the PDI turned out to be 0.01 and the Z-avg was 75 nm.

In the case of `CCCCC/C=C\C/C=C\CCCCCCCC(=O)OCC(CCCCCCCCC(=O)OC(CCCCCC)CCCCCC)COC(=O)OCCCN(CC)CC` (stereo not shown) [Compound 19, 2-((((3-(diethylamino)propoxy)carbonyl)oxy)methyl)-11-oxo-11-(tridecan-7-yloxy)undecyl (9Z,12Z)-octadeca-9,12-dienoate], in data set [1], the pKa stood at 6.09. Further, the “% E (encapsulation efficiency)” value in data set [2] amounted to 99%. For the same compound, in data set [3], the Number mean came out at 66 nm, the PDI is on record as 0.02 and the Z-avg came out at 71 nm.

`CCCCC/C=C\C/C=C\CCCCCCCC(=O)OCC(CCCCCCC(=O)OC(CCCC)CCCC)COC(=O)OCCCN(CC)CC` (stereo not shown) [Compound 20, 2-((((3-(diethylamino)propoxy)carbonyl)oxy)methyl)-9-(nonan-5-yloxy)-9-oxononyl (9Z,12Z)-octadeca-9,12-dienoate]: in data set [1], the pKa stood at 6.19. In addition, the “% E (encapsulation efficiency)” value in data set [2] came out at 98%. In data set [3], the Number mean is recorded as 68 nm, the PDI stood at 0.05 and the Z-avg is reported as 84 nm.

With `CCCCCCCCOC(CCC(=O)OCC(COC(=O)CCC(OCCCCCCCC)OCCCCCCCC)COC(=O)NCCN(CC)CC)OCCCCCCCC` [Compound 22, 2-((((2-(diethylamino)ethyl)carbamoyl)oxy)methyl)propane-1,3-diyl bis(4,4-bis(octyloxy)butanoate)], in data set [1], the pKa came to 6.66. Further, the “% E (encapsulation efficiency)” value in data set [2] was 99%. Besides, in data set [3], the Number mean was determined as 77 nm, the PDI is listed as 0 and the Z-avg turned out to be 82 nm.

As to `CCCCC/C=C\C/C=C\CCCCCCCCC(COC(=O)CCCCCC(=O)OC(CCCCCCCC)CCCCCCCC)COC(=O)NCCN(CC)CC` (stereo not shown) [Compound 23, 1-((11Z,14Z)-2-((((2-(diethylamino)ethyl)carbamoyl)oxy)methyl)icosa-11,14-dien-1-yl) 7-(heptadecan-9-yl) heptanedioate], in data set [1], the pKa came out at 6.49. Also, the “% E (encapsulation efficiency)” value in data set [2] is 92% and 95%. Besides, in data set [3], the Number mean was 86 nm and 74 nm; the PDI is recorded as 0.02; the Z-avg is 90 nm and 81 nm.

As to `CCCCC/C=C\C/C=C\CCCCCCCC(=O)OCC(CCCCCCCCC(=O)OC(CCCCCCCC)CCCCCCCCC)COC(=O)CCC(CCCCCCCC)OC(=O)NCCN(C)CC` (stereo not shown) [Compound 24, 3-methyl-15-(9-(octadecan-9-yloxy)-9-oxononyl)-9-octyl-7,12-dioxo-8,13-dioxa-3,6-diazahexadecan-16-yl (9Z,12Z)-octadeca-9,12-dienoate], the pKa in data set [1] amounted to 6.1. Also, in data set [2], the “% E (encapsulation efficiency)” value was determined as 98%. In data set [3], the Number mean was 60 nm, the PDI is recorded as 0.03 and the Z-avg came out at 67 nm.

Regarding `CCCCC/C=C\C/C=C\CCCCCCCC(=O)OCC(CCCCCCCCC(=O)OC(CCCCCCCC)CCCCCCCCC)COC(=O)CCC(CCCCCCCC)OC(=O)NCCN1CCCC1` (stereo not shown) [Compound 25, 11-(octadecan-9-yloxy)-11-oxo-2-(((4-(((2-(pyrrolidin-1-yl)ethyl)carbamoyl)oxy)dodecanoyl)oxy)methyl)undecyl (9Z,12Z)-octadeca-9,12-dienoate], the pKa in data set [1] stood at 6.44. Also, the “% E (encapsulation efficiency)” value in data set [2] is reported as 98%. Besides, in data set [3], the Number mean stood at 64 nm, the PDI is reported as 0.03 and the Z-avg is recorded as 72 nm.
